Patent publication US8273738B2, “Imidazole derivatives” (priority 2006, dated 2012)
Counter-ions that a name gives are not always drawn. Like-named read-outs stand apart in the source and are kept apart here.

Assays:
CB2 receptor = target: T1, CB2 receptor (Rattus norvegicus, UniProt Q9QZN9); experiment: Cannabinoid CB2 receptor-binding activity ([3H]CP55940 binding experiment), rat spleen membrane specimen
T1 construct: from tissue; host or cells: rat spleen membrane specimen
T1 sequence (Q9QZN9 1-360): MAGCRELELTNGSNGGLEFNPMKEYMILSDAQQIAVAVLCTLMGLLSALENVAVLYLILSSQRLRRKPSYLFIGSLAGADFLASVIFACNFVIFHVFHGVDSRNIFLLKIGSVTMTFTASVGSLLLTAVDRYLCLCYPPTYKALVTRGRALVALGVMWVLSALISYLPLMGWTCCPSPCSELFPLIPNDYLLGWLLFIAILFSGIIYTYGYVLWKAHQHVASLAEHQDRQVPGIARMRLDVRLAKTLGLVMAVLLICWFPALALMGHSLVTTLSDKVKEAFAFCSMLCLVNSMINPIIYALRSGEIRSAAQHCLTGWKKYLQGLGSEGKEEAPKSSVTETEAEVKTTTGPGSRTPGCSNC
Experimental: A test was carried out according to the method of Hillard et al. [The Journal of Pharmacology and Experimental Therapeutics, vol. 289, p. 1427 (1999)]. A rat forebrain membrane specimen and a rat spleen membrane specimen were prepared and used in a binding experiment for a CB1 receptor and a binding experiment for a CB2 receptor, respectively. The membrane specimen (forebrain: final concentration of 0.5 mg of protein/mL, spleen: final concentration of 2 mg of protein/mL) was incubated together with a test compound and [^3H]CP55940 (manufactured by PerkinElmer) ((−)-cis-3-[2-hydroxy-[3,5-^3H]-4-(1,1-dimethylheptyl)phenyl]-trans-4-(3-hydroxypropyl)cyclohexanol)) (final concentration: 0.5 nmol/L) in an assay buffer (50 mmol/L Tris-HCl buffer (pH 7.4), 1 mmol/L EDTA and 3 mmol/L MgCl2) containing 0.1% bovine serum albumin at 25° C. for 1 hour, and the resulting mixture was filtered using a glass filter GF/C (manufactured by Whatman) treated with 1% polyethyleneimine. After the glass filter was washed with the assay buffer containing 0.2% bovine serum albumin, the radioactivity on the glass filter was measured using a liquid scintillation counter (TRI-CARB 2700TR, manufactured by Packard). The binding amount in the presence of 10 μmol/L […] (manufactured by Tocris) ((R)-(+)-[2,3-dihydro-5-methyl-3-(4-morpholinylmethyl)pyrrolo[1,2,3-de]-1,4-benzoxazin-6-yl]-1-naphthalenylmethanone) was considered to be a non-specific binding amount, and a difference between the total binding amount and the non-specific binding amount was considered to be a specific binding amount. The 50% inhibitory concentration (IC50 value) of the test compound against the specific binding was obtained, and the Ki value of the test substance was calculated from the 50% inhibitory concentration and the Kd value of the [^3H]CP55940 binding.

human CB2 receptor = target: T2, human CB2 receptor (Homo sapiens, UniProt P34972); experiment: GTPγS binding experiment via human CB2 receptor (membrane fraction of CHO-K1 cells); format: biochemical; settings: for Emax: read-out: Emax value (maximum effect of CP55940 as 100%)
T2 construct: expressed in transfected cells
Experimental: A test was carried out according to the method of Hillard et al. [The Journal of Pharmacology and Experimental Therapeutics, vol. 289, p. 1427 (1999)]. As for a membrane specimen, a membrane fraction was prepared from CHO-K1 cells in which a human CB2 receptor [Nature, vol. 365, pp. 61-65 (1993)] was stably expressed and used. The membrane specimen (final concentration: 40 μg of protein/mL) was incubated together with a test compound and [^35S]GTPγS (manufactured by PerkinElmer) (final concentration: 0.05 nmol/L) in an assay buffer (50 mmol/L Tris-HCl buffer (pH 7.4), 100 mmol/L NaCl, 1 mmol/L EDTA, 3 mmol/L MgCl2, and 0.1% bovine serum albumin) containing 20 μmol/L guanosine 5′-diphosphate (GDP) at 30° C. for 1 hour, and the resulting mixture was filtered using a glass filter GF/B (manufactured by Whatman). After the glass filter was washed with the assay buffer, the radioactivity on the glass filter was measured using a liquid scintillation counter (TRI-CARB 2700TR, manufactured by Packard). The binding amount in the presence of 10 μmol/L GTPγS was considered to be a non-specific binding amount, and a difference between the total binding amount and the non-specific binding amount was considered to be a specific binding amount. The ratio of increase in the specific binding amount in the presence of the test compound to the specific binding amount in the absence of the test compound was considered to be an agonistic activity of the test compound. The concentration of the test compound that produces 50% of the maximum effect (EC50 value) was calculated by performing a nonlinear regression analysis using the concentration-response data. The percentage of the maximum effect of the test compound (Emax value) was calculated by considering the maximum effect of CP55940 (manufactured by Tocris) measured at the same time as 100%.

[1] = system: rats with chronic constriction nerve injury; experiment: Analgesic effect in rats with chronic constriction nerve injury (von Frey filament); format: in vivo, rat; settings: oral, dose of 50 mg/kg or less, one hour after administration, von Frey filaments
Description: Rats with chronic constriction nerve injury were produced by partially modifying the method of Mosconi and Kruger et al. (Pain, vol. 64, pp. 37-57 (1996))
Male Crl:CD(SD) rats were used for the experiments. Under pentobarbital anesthesia, the sciatic nerve of the left hind limb of the rat was exfoliated, and the exfoliated region was wrapped with a polyethylene tube (trade name: Intramedic, size: PE-60, manufactured by Becton Dickinson and Company) of 2 mm in length. On days 14 to 21 after the surgery, the rats were placed in an acrylic connected cage with a wire mesh floor (900 mm (length)×210 mm (depth)×140 mm (height)) consisting of 4 cages connected in a row and allowed to acclimate to the environment for at least 20 minutes, and then, the pain was evaluated.
The von Frey filament (trade name: touch test sensory evaluator, Model number: model 58011, manufactured by Muromachi Kikai) was used to evaluate pain, and the results were calculated as a pain threshold. That is, by using a von Frey filament of different stimulus intensity, stimulation was given to the plantar surface of the injured side of rats with chronic constriction nerve injury, and the stimulus intensity to cause paw withdrawal response was obtained. Then, the 50% pain threshold (Paw withdrawal threshold) (g) was calculated by the up down method of Dixon [Annual Review of Pharmacology and Toxicology, vol. 20, pp. 441-462 (1980)].
In the evaluation of the test compound, rats with 50% pain threshold of less than 4 g were used, and the test compound was dissolved in a 0.5% aqueous methyl cellulose solution and orally administered at a dose of 5 mL/kg. One hour after the administration, the pain threshold was measured using von Frey filaments.

[2] = rat spleen membrane, [3H]CP55940 0.5 nmol/L, 25° C., 1 hour, read-out: Ki value against the CB2 receptor

T2 sequence (P34972 whole entry): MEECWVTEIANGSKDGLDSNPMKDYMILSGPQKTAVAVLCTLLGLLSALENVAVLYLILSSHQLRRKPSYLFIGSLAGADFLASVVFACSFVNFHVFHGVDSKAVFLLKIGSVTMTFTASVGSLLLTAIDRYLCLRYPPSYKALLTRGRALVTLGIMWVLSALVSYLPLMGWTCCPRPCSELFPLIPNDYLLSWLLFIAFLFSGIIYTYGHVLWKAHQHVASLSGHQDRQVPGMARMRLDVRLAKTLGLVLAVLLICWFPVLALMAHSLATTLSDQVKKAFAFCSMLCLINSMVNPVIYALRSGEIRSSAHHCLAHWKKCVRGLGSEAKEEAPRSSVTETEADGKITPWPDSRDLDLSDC

Compound | Ki (CB2 receptor; [2]) | EC50 (human CB2 receptor) | Emax (human CB2 receptor) | Ki (CB2 receptor) | 50% pain threshold (paw withdrawal threshold) [1]
CCOc1ccc(Cc2nc(-c3cccc(C#N)c3)cn2CC2CCOCC2)cc1 [Compound p, 3-[2-(4-Ethoxybenzyl)-1-(tetrahydropyran-4-ylmethyl)-1H-imidazol-4-yl]benzonitrile] | < 1 µM |  |  |  | 
CC(=O)c1cccc(-c2cn(CC3CCOCC3)c(C(C)(C)C)n2)c1 [Compound 49, 1-{3-[2-tert-Butyl-1-(tetrahydropyran-4-ylmethyl)-1H-imidazol-4-yl]phenyl}ethanone] | < 1 µM | < 1 µM | > 30% |  | 
CN(C)C(=O)c1cc(-c2cn(CC3(F)CCOCC3)c(C(C)(C)C)n2)cs1 [Compound 188, 4-[2-tert-Butyl-1-(4-fluorotetrahydropyran-4-ylmethyl)-1H-imidazol-4-yl]-N,N-dimethylthiophene-2-carboxamide] | < 1 µM |  |  |  | 
CCOc1ccc(Cc2nc(-c3cccc(OC)c3)cn2CC2CCOCC2)cc1 [Compound o, 2-(4-Ethoxybenzyl)-4-(3-methoxyphenyl)-1-(tetrahydro-pyran-4-ylmethyl)-1H-imidazole] | < 1 µM |  |  |  | 
CC(C)(C)c1nc(-c2cccc([N+](=O)[O-])c2)cn1CC1CCCCO1 (stereo not drawn) [Compound 42, 2-tert-Butyl-4-(3-nitrophenyl)-1-(tetrahydropyran-2-ylmethyl)-1H-imidazole] |  | < 1 µM | > 30% | < 1 µM | 
CC(C)(C)c1nc(-c2cccc(C(=O)c3ccccc3)c2)cn1CC1CCOCC1 [Compound 48, {3-[2-tert-Butyl-1-(tetrahydropyran-4-ylmethyl)-1H-imidazol-4-yl]phenyl}phenylmethanone hydrochloride] |  | < 1 µM | > 30% | < 1 µM | 
CN(C)C(=O)c1cccc(-c2cn(CC3(F)CCOCC3)c(C(C)(C)C)n2)c1 [Compound 187, 3-[2-tert-Butyl-1-(4-fluorotetrahydropyran-4-ylmethyl)-1H-imidazol-4-yl]-N,N-dimethylbenzamide] | < 1 µM |  |  |  | significantly increased the pain threshold
CC(C)(C)c1nc(-c2cncc(Br)c2)cn1CC1CCOCC1 [Compound 84, 3-Bromo-5-[2-tert-Butyl-1-(tetrahydropyran-4-ylmethyl)-1H-imidazol-4-yl]pyridine] | < 1 µM |  |  |  | 
CCNC(=O)c1cccc(-c2cn(CC3CCOCC3)c(C(C)(C)C)n2)c1 [Compound 72, 3-(2-tert-Butyl-1-(tetrahydropyran-4-ylmethyl)-1H-imidazol-4-yl)-N-ethylbenzamide] |  | < 1 µM | > 30% | < 1 µM | 
CN(C)C(=O)c1cc(-c2cn(CC3CCOCC3)c(C(C)(C)C)n2)cs1 [Compound 133, 4-[2-tert-Butyl-1-(tetrahydropyran-4-ylmethyl)-1H-imidazol-4-yl]thiophene-2-carboxylic acid dimethylamide] | < 1 µM |  |  |  | significantly increased the pain threshold
COc1cccc(-c2cn(CC3CCCCC3)c(CC(C)(C)C)n2)c1 [Compound 38, 1-Cyclohexylmethyl-2-(2,2-dimethylpropyl)-4-(3-methoxyphenyl)-1H-imidazole] |  | < 1 µM | > 30% |  | 
CCN(CC)c1cccc(-c2cn(CC3CCOCC3)c(C(C)(C)C)n2)c1 [Compound 77, {3-[2-tert-Butyl-1-(tetrahydropyran-4-ylmethyl)-1H-imidazol-4-yl]phenyl}-diethylamine] |  | < 1 µM | > 30% | < 1 µM | 
CCN(CC)C(=O)c1cccc(-c2cn(CC3CCCCC3)c(C(C)(C)C)n2)c1 [Compound 32, 3-(2-tert-Butyl-1-cyclohexylmethyl-1H-imidazol-4-yl)-N,N-diethylbenzamide] | < 1 µM |  |  |  | 
CCCN(CCC)C(=O)C=Cc1cn(CC2CCOCC2)c(C(C)(C)C)n1 [Compound 92, 3-(2-tert-Butyl-1-(tetrahydropyran-4-ylmethyl)-1H-imidazol-4-yl)-N,N-dipropylacrylamide] | < 1 µM |  |  |  | 
CN(CC#N)C(=O)c1cncc(-c2cn(CC3CCOCC3)c(C(C)(C)C)n2)n1 [Compound 207, 6-[2-tert-Butyl-1-(tetrahydropyran-4-ylmethyl)-1H-imidazol-4-yl]-N-cyanomethyl-N-methylpyrazine-2-carboxamide] | < 1 µM |  |  |  | significantly increased the pain threshold
CC(C)(C)c1nc(C=CC(=O)N(CC(F)(F)F)CC(F)(F)F)cn1CC1CCOCC1 [Compound 90, 3-(2-tert-Butyl-1-(tetrahydropyran-4-ylmethyl)-1H-imidazol-4-yl)-N,N-bis(2,2,2-trifluoroethyl)acrylamide] | < 1 µM |  |  |  | 
CCOc1ccc(Cc2nc(-c3cccc(C(=O)N(CC)CC)c3)cn2CC2CCOCC2)cc1 [Compound q, 3-[2-(4-Ethoxybenzyl)-1-(tetrahydropyran-4-ylmethyl)-1H-imidazol-4-yl]-N,N-diethylbenzamide] | < 1 µM |  |  |  | 
CC(C)C(=O)c1cccc(-c2cn(CC3CCOCC3)c(C(C)(C)C)n2)c1 [Compound 47, 1-{3-[2-tert-Butyl-1-(tetrahydropyran-4-ylmethyl)-1H-imidazol-4-yl]phenyl}-2-methylpropan-1-one hydrochloride] | < 1 µM |  |  |  | 
CC(C)(C)c1nc(-c2cccc([N+](=O)[O-])c2)cn1CC1CCCCC1 [Compound 28, 2-tert-Butyl-1-cyclohexylmethyl-4-(3-nitrophenyl)-1H-imidazole] | < 1 µM |  |  |  | 
CC(C)(C)c1nc(-c2cccc(C(=O)N(CC(F)(F)F)CC(F)(F)F)c2)cn1CC1CCOCC1 [Compound 82, 3-(2-tert-Butyl-1-(tetrahydropyran-4-ylmethyl)-1H-imidazol-4-yl)-N,N-bis(2,2,2-trifluoroethyl)benzamide] |  | < 1 µM | > 30% | < 1 µM | 
